This is an account of results in ChEMBL document CHEMBL1201862, “PubChem BioAssay data set” (2004).

Molecules are shown by their SMILES. Where a name gives a salt, the structure may show the parent alone.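 Assay format: 96-well plates, 48-hour exposure. GI50 is the concentration that inhibits growth by half.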 Active and inactive are the calls of the source. No stated cut-off is given here; in the data, active = GI50 up to about 1.1 µM and inactive = higher. Residues, ends and D or L forms follow the SMILES beside them. *: point of attachment. Boc = CC(C)(C)OC(=O)*

Among the test systems are SK-MEL-5; MDA-MB-231; UACC-62; UACC-257; SK-MEL-2; SN12C; ACHN; MCF7; HCC 2998; UO-31; NCI-H23; NCI-H226; HCT-116; OVCAR-4; MDA-MB-435; RXF 393; COLO 205; SK-OV-3; HOP-92; A498.
What all share (assay): NCI anticancer screen, dose series, 48 h

Take `COC(=O)C(Cc1c[nH]c2ccccc12)NC(=O)C(Cc1c[nH]c2ccccc12)NC(=O)C(Cc1c[nH]c2ccccc12)NC(=O)C(Cc1c[nH]c2ccccc12)NC(=O)C(Cc1c[nH]c2ccccc12)NC(=O)C(Cc1c[nH]c2ccccc12)NC(=O)OC(C)(C)C` (stereo not given) (Boc-WWWWWW-OMe; configuration not given here): the GI50 was 19.3 µM (inactive) in the assay with SK-MEL-5; > 100 µM (inactive) with MDA-MB-231; 32 µM (inactive) in the assay with UACC-62; 30.3 µM (inactive) in the assay with UACC-257; 61.7 µM (inactive) with SK-MEL-2; 49.9 µM (inactive) in the assay on SN12C. The GI50 in the assay with ACHN was > 100 µM (inactive); with MCF7 it was 5.25 µM (inactive); in the assay on HCC 2998, > 100 µM (inactive); with UO-31 it was 33 µM (inactive); in the assay with NCI-H23 it was 28.5 µM (inactive); with NCI-H226, 64 µM (inactive). In addition, the GI50 in the assay with HCT-116 was 37.3 µM (inactive); with OVCAR-4, > 100 µM (inactive); in the assay with MDA-MB-435, > 100 µM (inactive).

Regarding `CCOC(=O)c1nnsc1N/N=C\c1ccc([N+](=O)[O-])cc1`, the GI50 in the assay with SK-MEL-5 was > 100 µM (inactive); with RXF 393, > 100 µM (inactive); with MDA-MB-231, 79.8 µM (inactive); in the assay with UACC-62, > 100 µM (inactive); with UACC-257 it was > 100 µM (inactive); in the assay with SK-MEL-2, > 100 µM (inactive). For the same compound, the GI50 with SN12C, in the assay on ACHN, in the assay on MCF7, with HCC 2998, with UO-31 and with COLO 205 was > 100 µM (inactive) in each case. Moreover, the GI50 with SK-OV-3, with NCI-H23, with NCI-H226, in the assay with HCT-116, in the assay on OVCAR-4 and with MDA-MB-435 was > 100 µM (inactive) throughout.

In the case of `Nc1nc(O)nc2snnc12`, the GI50 in the assay on SK-MEL-5 is > 74.3 µM (inactive); in the assay on RXF 393, 4.66 µM (inactive); with MDA-MB-231, 7.13 µM (inactive); in the assay on UACC-62, 7.26 µM (inactive); in the assay with UACC-257, 24.7 µM (inactive); in the assay with SK-MEL-2 it was 1.75 µM (inactive). For the same compound, the GI50 with SN12C was > 27.4 µM (inactive); with HOP-92, 20.3 µM (inactive); with ACHN, > 100 µM (inactive); with MCF7, > 100 µM (inactive); in the assay on HCC 2998, > 65.6 µM (inactive); in the assay on UO-31, 3.99 µM (inactive). For the same compound, the GI50 with COLO 205 is > 100 µM (inactive); with SK-OV-3 it was 50.2 µM (inactive); with NCI-H23, > 100 µM (inactive); in the assay with NCI-H226, > 36.1 µM (inactive); with HCT-116, 7.89 µM (inactive); with OVCAR-4, > 53.7 µM (inactive). Also, the GI50 in the assay with MDA-MB-435 was 4.59 µM (inactive).

For `N#CC1(c2ccccc2)CCN(C2(c3ccccc3)CCCCC2)CC1`, the GI50 with SK-MEL-5, in the assay on RXF 393, with MDA-MB-231, with UACC-62, in the assay with UACC-257 and with SK-MEL-2 was > 100 µM (inactive) each time. In addition, the GI50 in the assay with SN12C, in the assay with ACHN, in the assay with MCF7, with HCC 2998, in the assay on UO-31 and in the assay on COLO 205 was > 100 µM (inactive) throughout. Further, the GI50 with SK-OV-3, with NCI-H23, with NCI-H226, with HCT-116, in the assay on OVCAR-4 and in the assay with MDA-MB-435 was > 100 µM (inactive) throughout.

On to `S=C(NCc1ccccc1)c1nc[nH]c1C(=S)NCc1ccccc1`, for which the GI50 in the assay with RXF 393 was 11.1 µM (inactive); in the assay with MDA-MB-231, 10 µM (inactive); with UACC-62, 3.2 µM (inactive); in the assay with UACC-257, 10.1 µM (inactive); with SK-MEL-2, 9.08 µM (inactive); in the assay on SN12C it was 11.7 µM (inactive). In addition, the GI50 in the assay on HOP-92 was 1.88 µM (inactive); in the assay with ACHN, 2.69 µM (inactive); in the assay on MCF7, 2.55 µM (inactive); with HCC 2998 it was 10 µM (inactive); with COLO 205, 3.48 µM (inactive); in the assay with SK-OV-3 it was 12.7 µM (inactive). Further, the GI50 in the assay on NCI-H23 was 6.93 µM (inactive); in the assay on NCI-H226, 1.78 µM (inactive); with HCT-116 it was 5.64 µM (inactive); in the assay on OVCAR-4 it was 6.65 µM (inactive); with MDA-MB-435 it was 6.62 µM (inactive).

For the compound `CN[C@@H](C)[C@@H](O)c1ccccc1` [PSEUDOEPHEDRINE HYDROCHLORIDE], the GI50 in the assay on SK-MEL-5 is > 100 µM (inactive); in the assay on MDA-MB-231, > 10 µM (inactive); in the assay with UACC-257, > 100 µM (inactive); in the assay on SK-MEL-2, > 100 µM (inactive); in the assay with SN12C, > 100 µM (inactive); in the assay with HOP-92, > 100 µM (inactive). The GI50 with ACHN, in the assay on MCF7, in the assay with HCC 2998, in the assay with UO-31, with COLO 205 and with NCI-H23 was > 100 µM (inactive) throughout. For the same compound, the GI50 in the assay with NCI-H226, with HCT-116, in the assay on OVCAR-4 and in the assay on MDA-MB-435 was > 100 µM (inactive) each time.

For `COc1ccc([S+]([O-])Cc2cc(OC)c(OC)c(OC)c2)cc1` (stereo not given), the GI50 is 29.6 µM (inactive) in the assay on SK-MEL-5; 29.2 µM (inactive) in the assay with RXF 393; 84.5 µM (inactive) in the assay with MDA-MB-231; 42.4 µM (inactive) with UACC-62; > 100 µM (inactive) in the assay with UACC-257; 38.1 µM (inactive) in the assay with SK-MEL-2. Also, the GI50 is 54.8 µM (inactive) in the assay with SN12C; > 100 µM (inactive) with ACHN; 39.5 µM (inactive) in the assay on MCF7; 54.3 µM (inactive) in the assay with HCC 2998; > 100 µM (inactive) in the assay with UO-31; 52.8 µM (inactive) in the assay on COLO 205. Besides, the GI50 in the assay on SK-OV-3 was > 100 µM (inactive); with NCI-H23, 76.2 µM (inactive); with NCI-H226 it was > 100 µM (inactive); with HCT-116 it was 40.4 µM (inactive); with OVCAR-4, > 100 µM (inactive); in the assay with MDA-MB-435 it was 5.96 µM (inactive).

Take `CCN1CCCC(Nc2cc(C)nc(NC(=N)Nc3ccc(Cl)c(Cl)c3)n2)C1` (stereo not given): the GI50 in the assay on SK-MEL-5 is 2.08 µM (inactive); in the assay with MDA-MB-231, 1.62 µM (inactive); with UACC-62 it was 1.85 µM (inactive); in the assay on SK-MEL-2, 2.04 µM (inactive); with SN12C, 2.58 µM (inactive); in the assay with HOP-92 it was 1.31 µM (inactive). Further, the GI50 in the assay on ACHN is 2.32 µM (inactive); in the assay on MCF7, 1.79 µM (inactive); with HCC 2998, 0.551 µM (active); with UO-31 it was 0.982 µM (active); in the assay with COLO 205 it was 1.27 µM (inactive); in the assay with SK-OV-3, 2.78 µM (inactive). Besides, the GI50 in the assay on NCI-H23 is 1.77 µM (inactive); in the assay on HCT-116, 1.26 µM (inactive); in the assay with OVCAR-4, 1.85 µM (inactive); in the assay on MDA-MB-435 it was 1.49 µM (inactive).

In the case of `S=c1sc2c(Cl)ncnc2n1-c1ccccc1`, the GI50 is 16.1 µM (inactive) in the assay on SK-MEL-5; 15.1 µM (inactive) in the assay with RXF 393; 9.62 µM (inactive) with UACC-62; 15.5 µM (inactive) in the assay with UACC-257; 8.81 µM (inactive) in the assay with SK-MEL-2; 15.8 µM (inactive) in the assay on SN12C. The GI50 in the assay on HOP-92 was 19.7 µM (inactive); in the assay on ACHN, 16.5 µM (inactive); in the assay on HCC 2998, 17.1 µM (inactive); in the assay with UO-31, 18.7 µM (inactive); in the assay on COLO 205, 14 µM (inactive); in the assay on SK-OV-3, 20 µM (inactive). Further, the GI50 is 17.4 µM (inactive) with NCI-H23; 13.4 µM (inactive) in the assay on NCI-H226; 5.66 µM (inactive) in the assay with HCT-116; 18.8 µM (inactive) in the assay with OVCAR-4; 16.6 µM (inactive) in the assay on A498.

On to `COc1ccccc1/C=N/C12CC3CC(CC(C3)C1)C2`, for which the GI50 with SK-MEL-5 was 81.8 µM (inactive); in the assay on RXF 393 it was > 100 µM (inactive); in the assay on UACC-62, > 100 µM (inactive); in the assay with UACC-257, > 100 µM (inactive); with SK-MEL-2, > 100 µM (inactive); in the assay with SN12C, > 100 µM (inactive). Also, the GI50 in the assay with HOP-92, in the assay with ACHN, in the assay on HCC 2998, with UO-31, in the assay with COLO 205 and in the assay on SK-OV-3 was > 100 µM (inactive) in each case. For the same compound, the GI50 was > 100 µM (inactive) in the assay on NCI-H23; > 10 µM (inactive) in the assay with NCI-H226; > 10 µM (inactive) in the assay on HCT-116; > 100 µM (inactive) in the assay with OVCAR-4; > 100 µM (inactive) in the assay on A498.

For the compound `Cc1ccc(S(=O)(=O)N/N=c2/sc3ccccc3n2C)cc1`, the GI50 in the assay with SK-MEL-5, in the assay with RXF 393, with MDA-MB-231, in the assay on UACC-62, with UACC-257 and with SK-MEL-2 was > 100 µM (inactive) throughout. The GI50 with SN12C, with HOP-92, in the assay with ACHN, in the assay on HCC 2998, with UO-31 and in the assay with COLO 205 was > 100 µM (inactive) in each case. Besides, the GI50 with SK-OV-3, in the assay on NCI-H23, with NCI-H226, with HCT-116, in the assay with OVCAR-4 and with A498 was > 100 µM (inactive) each time. Also, in the assay with MDA-MB-435, the GI50 is > 100 µM (inactive).
